ChEMBL document CHEMBL1201862, “PubChem BioAssay data set” (2004)
Where a name gives a salt, the structure may show the parent alone. Calls of active or inactive are those of the source.

What was measured:
[1] = molecular target: T1, 1-phosphatidylinositol 4,5-bisphosphate phosphodiesterase gamma-1 (Homo sapiens, UniProt P19174); test: Counterscreen for inhibitors of phospholipase C isozymes (PLC-B3): Fluorescence-based biochemical high throughput dose response assay to identify inhibitors of phospholipase C isozymes (PLC-gamma1).
T1 sequence (P19174 whole entry): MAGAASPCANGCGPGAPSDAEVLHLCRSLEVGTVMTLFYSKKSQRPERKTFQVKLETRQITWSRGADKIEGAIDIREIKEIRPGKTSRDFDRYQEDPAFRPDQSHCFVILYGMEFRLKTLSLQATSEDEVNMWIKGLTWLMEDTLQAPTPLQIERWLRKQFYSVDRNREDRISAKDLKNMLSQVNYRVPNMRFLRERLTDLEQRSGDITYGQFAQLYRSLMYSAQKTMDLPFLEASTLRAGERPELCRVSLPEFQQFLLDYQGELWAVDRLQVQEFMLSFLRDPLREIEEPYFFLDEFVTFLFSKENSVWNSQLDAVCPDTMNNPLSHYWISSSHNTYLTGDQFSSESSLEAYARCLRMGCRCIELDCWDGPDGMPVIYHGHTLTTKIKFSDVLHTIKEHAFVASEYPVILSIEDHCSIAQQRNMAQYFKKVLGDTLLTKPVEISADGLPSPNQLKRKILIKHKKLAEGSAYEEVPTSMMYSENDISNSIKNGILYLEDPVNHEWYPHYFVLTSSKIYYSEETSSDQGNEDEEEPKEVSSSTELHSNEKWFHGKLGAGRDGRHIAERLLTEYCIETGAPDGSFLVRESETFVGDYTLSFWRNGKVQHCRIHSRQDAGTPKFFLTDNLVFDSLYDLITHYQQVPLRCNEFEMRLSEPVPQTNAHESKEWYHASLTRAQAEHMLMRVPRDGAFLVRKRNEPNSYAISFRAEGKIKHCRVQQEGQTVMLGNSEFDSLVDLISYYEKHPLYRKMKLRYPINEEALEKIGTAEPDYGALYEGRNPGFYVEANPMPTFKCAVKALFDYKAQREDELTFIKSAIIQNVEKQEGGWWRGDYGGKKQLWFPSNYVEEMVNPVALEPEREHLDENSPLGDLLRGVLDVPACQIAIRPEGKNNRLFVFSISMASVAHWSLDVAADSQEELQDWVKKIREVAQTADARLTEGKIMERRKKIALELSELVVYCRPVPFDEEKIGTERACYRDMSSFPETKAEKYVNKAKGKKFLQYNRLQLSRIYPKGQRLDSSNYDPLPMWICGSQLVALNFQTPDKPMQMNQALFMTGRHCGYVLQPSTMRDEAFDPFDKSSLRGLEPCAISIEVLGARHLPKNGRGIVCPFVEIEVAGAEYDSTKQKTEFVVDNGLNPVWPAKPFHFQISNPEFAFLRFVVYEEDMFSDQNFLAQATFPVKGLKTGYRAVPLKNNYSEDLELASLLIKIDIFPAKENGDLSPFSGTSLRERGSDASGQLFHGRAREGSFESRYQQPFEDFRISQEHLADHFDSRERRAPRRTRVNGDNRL

[2] = molecular target: T2, 1-phosphatidylinositol 4,5-bisphosphate phosphodiesterase beta-3 (Homo sapiens, UniProt Q01970); test: Fluorescence-based biochemical high throughput dose response assay to identify inhibitors of phospholipase C isozymes (PLC-B3).
T2 sequence (Q01970 whole entry): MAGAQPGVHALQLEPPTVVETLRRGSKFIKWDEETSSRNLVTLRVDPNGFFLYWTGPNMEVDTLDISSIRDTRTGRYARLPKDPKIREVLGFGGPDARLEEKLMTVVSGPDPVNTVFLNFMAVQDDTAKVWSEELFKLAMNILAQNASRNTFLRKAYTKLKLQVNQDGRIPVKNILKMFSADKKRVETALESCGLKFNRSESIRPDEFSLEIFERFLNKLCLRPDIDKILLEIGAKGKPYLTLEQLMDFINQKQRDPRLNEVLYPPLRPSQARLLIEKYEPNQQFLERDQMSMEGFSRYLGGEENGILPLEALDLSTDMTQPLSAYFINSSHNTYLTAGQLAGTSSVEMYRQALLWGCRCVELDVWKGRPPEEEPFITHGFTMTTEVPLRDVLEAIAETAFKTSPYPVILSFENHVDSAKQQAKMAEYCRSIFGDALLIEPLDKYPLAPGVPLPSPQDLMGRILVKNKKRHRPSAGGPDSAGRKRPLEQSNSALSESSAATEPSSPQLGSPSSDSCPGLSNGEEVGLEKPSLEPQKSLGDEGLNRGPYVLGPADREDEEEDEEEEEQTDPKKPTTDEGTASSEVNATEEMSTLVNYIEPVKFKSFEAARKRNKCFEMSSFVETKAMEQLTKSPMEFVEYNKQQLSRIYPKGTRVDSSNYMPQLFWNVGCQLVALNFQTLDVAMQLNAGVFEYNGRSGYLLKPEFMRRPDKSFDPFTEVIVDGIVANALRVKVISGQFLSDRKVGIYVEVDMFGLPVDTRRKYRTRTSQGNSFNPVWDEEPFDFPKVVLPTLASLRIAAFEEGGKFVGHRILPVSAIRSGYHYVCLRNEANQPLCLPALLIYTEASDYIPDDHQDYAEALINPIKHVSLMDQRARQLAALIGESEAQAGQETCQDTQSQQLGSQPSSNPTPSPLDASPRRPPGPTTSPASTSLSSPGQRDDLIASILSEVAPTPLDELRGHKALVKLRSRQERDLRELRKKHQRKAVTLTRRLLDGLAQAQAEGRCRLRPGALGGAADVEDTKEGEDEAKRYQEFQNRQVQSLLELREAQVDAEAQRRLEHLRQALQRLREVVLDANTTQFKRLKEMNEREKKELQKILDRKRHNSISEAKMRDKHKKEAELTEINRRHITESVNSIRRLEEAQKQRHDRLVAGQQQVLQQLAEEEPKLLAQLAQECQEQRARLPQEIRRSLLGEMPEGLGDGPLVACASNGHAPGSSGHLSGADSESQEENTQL

Cytochrome P450 2D6 = Cytochrome P450 2D6 (Homo sapiens, UniProt P10635);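 further: CYP2D6 member of a cytochrome P450 panel assay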
Cytochrome P450 2D6, sequence (P10635 whole entry): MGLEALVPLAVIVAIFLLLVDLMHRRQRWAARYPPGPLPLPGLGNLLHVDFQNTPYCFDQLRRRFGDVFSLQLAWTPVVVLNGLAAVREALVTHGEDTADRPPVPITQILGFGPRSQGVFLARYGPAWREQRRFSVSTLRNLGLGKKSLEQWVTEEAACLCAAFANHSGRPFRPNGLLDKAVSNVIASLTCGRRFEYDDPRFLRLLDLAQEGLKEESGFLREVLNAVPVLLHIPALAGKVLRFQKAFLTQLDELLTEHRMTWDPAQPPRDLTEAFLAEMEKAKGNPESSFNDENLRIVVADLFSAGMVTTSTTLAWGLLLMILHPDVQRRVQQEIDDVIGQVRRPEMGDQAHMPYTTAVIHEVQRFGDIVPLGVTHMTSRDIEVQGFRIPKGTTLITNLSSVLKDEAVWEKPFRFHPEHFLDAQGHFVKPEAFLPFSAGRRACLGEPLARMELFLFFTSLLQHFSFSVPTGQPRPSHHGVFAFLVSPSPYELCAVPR

Prothrombin = Prothrombin (Homo sapiens, UniProt P00734); test: Thrombin 1536 HTS Dose Response Confirmation. [Related pubchem assays: 1046 (Thrombin 1536 HTS; hits were confirmed in this assay)]; format: functional
[3] = HPDE-C7 pancreatic duct cell viability loss – fluorescence, HTS (AID 430); format: functional, cell-based; conditions: Homo sapiens
[4] = viability loss of HPDE-C7K cells – cell-based, fluorescence, HTS, primary screen (AID 431); format: functional; conditions: Homo sapiens
[5] = molecular target: Voltage-dependent T-type calcium channel subunit alpha-1H (Homo sapiens, UniProt O95180); format: functional;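 further: channel activity triggered by adding a high calcium stimulation buffer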
Voltage-dependent T-type calcium channel subunit alpha-1H, sequence (O95180 whole entry): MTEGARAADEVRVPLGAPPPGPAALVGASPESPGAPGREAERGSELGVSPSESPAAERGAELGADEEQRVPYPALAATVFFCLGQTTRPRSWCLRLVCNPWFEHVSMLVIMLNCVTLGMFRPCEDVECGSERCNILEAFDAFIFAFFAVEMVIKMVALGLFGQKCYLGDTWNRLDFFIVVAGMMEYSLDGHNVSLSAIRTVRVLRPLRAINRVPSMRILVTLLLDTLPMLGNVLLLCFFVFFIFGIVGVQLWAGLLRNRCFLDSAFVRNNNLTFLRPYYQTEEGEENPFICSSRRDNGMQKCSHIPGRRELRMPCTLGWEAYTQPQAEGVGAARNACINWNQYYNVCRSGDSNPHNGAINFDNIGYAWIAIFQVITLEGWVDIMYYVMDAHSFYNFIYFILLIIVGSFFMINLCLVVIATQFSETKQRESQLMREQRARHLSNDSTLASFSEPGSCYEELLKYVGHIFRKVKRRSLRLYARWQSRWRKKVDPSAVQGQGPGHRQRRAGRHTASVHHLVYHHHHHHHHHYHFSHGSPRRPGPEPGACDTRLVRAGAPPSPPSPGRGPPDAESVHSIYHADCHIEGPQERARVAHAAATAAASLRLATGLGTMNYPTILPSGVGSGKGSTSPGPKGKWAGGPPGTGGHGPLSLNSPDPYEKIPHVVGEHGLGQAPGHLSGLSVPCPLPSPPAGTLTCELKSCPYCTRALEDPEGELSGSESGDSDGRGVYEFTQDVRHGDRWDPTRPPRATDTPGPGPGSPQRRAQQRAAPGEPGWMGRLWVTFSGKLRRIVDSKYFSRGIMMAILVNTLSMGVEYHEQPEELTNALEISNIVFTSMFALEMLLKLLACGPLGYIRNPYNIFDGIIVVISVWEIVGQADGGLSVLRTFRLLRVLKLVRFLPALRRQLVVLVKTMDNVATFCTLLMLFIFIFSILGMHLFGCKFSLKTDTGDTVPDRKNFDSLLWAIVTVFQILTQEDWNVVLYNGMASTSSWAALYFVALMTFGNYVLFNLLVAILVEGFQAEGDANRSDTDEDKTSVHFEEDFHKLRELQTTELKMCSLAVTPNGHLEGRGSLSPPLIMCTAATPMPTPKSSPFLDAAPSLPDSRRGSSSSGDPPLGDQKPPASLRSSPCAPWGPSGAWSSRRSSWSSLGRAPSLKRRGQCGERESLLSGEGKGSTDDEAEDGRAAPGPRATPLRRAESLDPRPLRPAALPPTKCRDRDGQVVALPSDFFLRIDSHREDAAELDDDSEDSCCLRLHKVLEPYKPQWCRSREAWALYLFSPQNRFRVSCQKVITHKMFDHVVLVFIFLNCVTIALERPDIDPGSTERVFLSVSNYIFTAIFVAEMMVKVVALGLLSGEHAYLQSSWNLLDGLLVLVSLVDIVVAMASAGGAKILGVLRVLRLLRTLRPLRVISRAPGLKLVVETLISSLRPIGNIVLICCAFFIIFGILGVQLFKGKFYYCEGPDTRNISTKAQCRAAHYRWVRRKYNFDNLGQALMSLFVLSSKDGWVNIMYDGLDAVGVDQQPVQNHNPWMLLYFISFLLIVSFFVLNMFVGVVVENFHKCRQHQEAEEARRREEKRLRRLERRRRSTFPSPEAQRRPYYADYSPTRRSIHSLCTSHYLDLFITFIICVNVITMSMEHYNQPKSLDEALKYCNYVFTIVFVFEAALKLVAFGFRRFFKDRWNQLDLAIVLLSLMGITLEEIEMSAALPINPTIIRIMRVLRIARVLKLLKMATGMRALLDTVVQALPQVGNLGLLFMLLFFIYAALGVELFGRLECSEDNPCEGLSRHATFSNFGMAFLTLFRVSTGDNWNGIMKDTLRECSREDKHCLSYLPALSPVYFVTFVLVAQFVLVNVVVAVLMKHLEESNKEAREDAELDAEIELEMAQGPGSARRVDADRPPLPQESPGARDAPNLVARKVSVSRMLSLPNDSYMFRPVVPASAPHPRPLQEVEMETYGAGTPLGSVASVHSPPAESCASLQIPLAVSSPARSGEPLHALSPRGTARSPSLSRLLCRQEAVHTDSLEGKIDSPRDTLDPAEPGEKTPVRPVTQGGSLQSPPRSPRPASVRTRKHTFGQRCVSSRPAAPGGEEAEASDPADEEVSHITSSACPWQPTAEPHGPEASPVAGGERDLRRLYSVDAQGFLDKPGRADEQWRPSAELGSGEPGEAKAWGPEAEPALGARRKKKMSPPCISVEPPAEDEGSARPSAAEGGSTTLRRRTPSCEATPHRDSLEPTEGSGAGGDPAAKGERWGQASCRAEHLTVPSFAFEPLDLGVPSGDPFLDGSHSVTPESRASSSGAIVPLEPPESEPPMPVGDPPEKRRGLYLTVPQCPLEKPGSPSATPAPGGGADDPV

[6] = Luminescence Cell-Based Dose Retest to Confirm Inhibitors of Cancer Stem Cells. [Related pubchem assays (depositor defined):AID2717, AID2721]; format: functional; conditions: Homo sapiens
Streptokinase A = molecular target: T3, Streptokinase A (Streptococcus pyogenes serotype M1, UniProt P10520); test: Absorbance Microorganism-Based Dose Response Follow up to Identify Inhibitors of Streptokinase Expression. [Related pubchem assays: 1677 (Project Summary), 1915, 1914, 1902 (Retest at Dose), 1900 (Counter Screen), 1662 (Primary HTS)]; format: functional, Streptococcus pyogenes M1 GAS
T3 sequence (P10520 whole entry): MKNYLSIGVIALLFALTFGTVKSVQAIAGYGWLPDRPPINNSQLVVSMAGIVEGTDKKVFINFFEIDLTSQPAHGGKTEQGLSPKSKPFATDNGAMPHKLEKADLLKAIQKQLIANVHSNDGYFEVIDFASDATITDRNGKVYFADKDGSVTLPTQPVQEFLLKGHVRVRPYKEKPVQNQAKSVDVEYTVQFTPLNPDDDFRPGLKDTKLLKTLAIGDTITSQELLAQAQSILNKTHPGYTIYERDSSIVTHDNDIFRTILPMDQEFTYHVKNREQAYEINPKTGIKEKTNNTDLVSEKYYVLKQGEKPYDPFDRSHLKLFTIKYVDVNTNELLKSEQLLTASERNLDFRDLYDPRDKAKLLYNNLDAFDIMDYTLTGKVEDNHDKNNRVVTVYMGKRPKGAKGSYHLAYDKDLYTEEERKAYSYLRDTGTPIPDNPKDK

Streptococcus = test: GAS bacterial viability reduction – luminescence, BacTiter-Glo, strain UMAA2166, counter-screen for streptokinase expression inhibitor project, dose response (AID 2477); format: functional, organism-based
[7] = NIH-3T3 fibroblast cytotoxicity, dose response, cytotoxicity control, cell-based, fluorescence, Alamar Blue, secondary assay (AID 2327); format: functional;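 further: NIH-3T3 mouse fibroblasts cultured with fluconazole at 8 µg/mL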
[8] = fluconazole-exposed Candida albicans growth modulators – fluorescence, retest, confirmation (AID 2467); format: functional, cell-based
[9] = Trypanosoma cruzi growth suppression in host cells – NIH3T3 host cells, beta-gal luminescence, confirmation (AID 2044); format: functional, cell-based;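 further: intracellular parasites grown in NIH/3T3 mouse fibroblasts as host cells; luminescent beta-galactosidase reporter signal from transgenic T. cruzi replicating inside host cells; inhibitors lower the luminescence signal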
[10] = NIH3T3 cell viability loss – ATP luminescence, mouse fibroblasts, counter-screen, dose response (AID 2010); format: functional, cell-based;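 further: cells exposed to compound for about 90 hours before reading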
[11] = molecular target: T4, Mannose-6-phosphate isomerase (Homo sapiens, UniProt P34949); test: MPI inhibition at elevated mannose 6-phosphate – biochemical, fluorescence intensity, high mannose 6-phosphate, primary screen (AID 1220)
T4 sequence (P34949 whole entry): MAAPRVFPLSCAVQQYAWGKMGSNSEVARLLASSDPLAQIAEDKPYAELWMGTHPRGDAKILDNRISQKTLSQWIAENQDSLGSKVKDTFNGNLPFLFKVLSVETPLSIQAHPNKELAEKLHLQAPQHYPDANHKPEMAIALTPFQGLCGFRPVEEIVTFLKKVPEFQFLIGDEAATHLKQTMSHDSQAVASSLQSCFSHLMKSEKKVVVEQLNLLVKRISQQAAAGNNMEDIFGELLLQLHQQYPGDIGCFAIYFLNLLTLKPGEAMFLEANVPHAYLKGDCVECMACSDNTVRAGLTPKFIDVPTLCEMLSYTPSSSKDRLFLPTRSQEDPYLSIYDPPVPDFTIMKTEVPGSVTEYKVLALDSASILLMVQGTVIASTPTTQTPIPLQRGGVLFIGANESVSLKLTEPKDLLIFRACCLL

Nonstructural protein 1 = Nonstructural protein 1 (Influenza A virus, UniProt Q194T2); format: functional, Influenza A virus (A/California/07/2009(H1N1))
Nonstructural protein 1, sequence (Q194T2 whole entry): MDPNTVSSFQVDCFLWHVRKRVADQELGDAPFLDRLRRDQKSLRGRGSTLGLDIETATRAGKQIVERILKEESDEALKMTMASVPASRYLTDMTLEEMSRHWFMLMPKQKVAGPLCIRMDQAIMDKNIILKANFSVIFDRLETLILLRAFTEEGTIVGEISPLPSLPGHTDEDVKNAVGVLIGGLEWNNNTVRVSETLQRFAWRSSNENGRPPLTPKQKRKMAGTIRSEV

INS1 = test: INS-1E survival protection against cytokine death – cell-based, luminescence, retest, dose response (AID 449756); format: functional; conditions: Rattus norvegicus;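 further: cell death triggered by IL-1 beta plus TNF-alpha plus IFN-gamma mixture; protective hits raise ATP signal compared with cytokine alone wells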
Caspase-6 = molecular target: T5, Caspase-6 (Homo sapiens, UniProt P55212); test: inhibition of CASP6 peptide cleavage – biochemical, VEID-R110 fluorescence, cherry-pick, dose response (AID 720632)
T5 sequence (P55212 whole entry): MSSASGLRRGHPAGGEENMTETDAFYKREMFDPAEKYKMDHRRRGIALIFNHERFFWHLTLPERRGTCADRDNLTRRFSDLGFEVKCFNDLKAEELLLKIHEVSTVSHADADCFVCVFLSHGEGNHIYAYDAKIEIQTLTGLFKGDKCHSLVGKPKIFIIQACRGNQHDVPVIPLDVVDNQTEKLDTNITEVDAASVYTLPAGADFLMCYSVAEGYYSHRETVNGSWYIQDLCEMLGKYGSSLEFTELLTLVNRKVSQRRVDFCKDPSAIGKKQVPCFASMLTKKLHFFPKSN

[12] = molecular target: Induced myeloid leukemia cell differentiation protein Mcl-1 (Homo sapiens, UniProt Q07820); format: functional
Induced myeloid leukemia cell differentiation protein Mcl-1, sequence (Q07820 whole entry): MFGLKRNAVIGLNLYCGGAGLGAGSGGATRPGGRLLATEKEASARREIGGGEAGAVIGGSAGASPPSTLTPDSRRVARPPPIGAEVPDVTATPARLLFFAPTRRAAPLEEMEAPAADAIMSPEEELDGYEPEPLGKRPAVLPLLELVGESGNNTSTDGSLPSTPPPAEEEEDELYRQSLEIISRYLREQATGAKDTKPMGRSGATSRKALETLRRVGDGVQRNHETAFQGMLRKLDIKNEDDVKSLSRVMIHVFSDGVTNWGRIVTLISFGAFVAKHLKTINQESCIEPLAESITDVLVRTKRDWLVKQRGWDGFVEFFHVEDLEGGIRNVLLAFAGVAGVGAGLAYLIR

O=C(Cc1cccs1)N1CCC(c2nc3c(nnn3Cc3ccccc3Cl)c(=O)[nH]2)CC1
IC50 [1]: > 122 µM (inactive)
IC50 [2]: > 122 µM (inactive)
AC50 (Cytochrome P450 2D6): 14.1 µM (inconclusive)

CCc1nccn1C(=O)c1cnn2c(C(F)F)cc(-c3ccccc3)nc12
IC50 (Prothrombin): 0.916 µM (active)

COC(=O)COc1nc(C)c2c(c1C#N)CC(C)(C)OC2
IC50 [1]: > 123 µM (inactive)
IC50 [2]: > 123 µM (inactive)

Cc1ccc(/C=C/C2=Cc3c(sc(NC(=O)CSc4n[nH]c(N)n4)c3C#N)C(C)(C)C2)o1
EC50 [3]: 7.52 µM (active)
EC50 [4]: 7.17 µM (active)

Fc1ccc(C(c2ccc(F)cc2)N2CCN(C/C=C/c3ccccc3)CC2)cc1 [FLUNARIZINE DIHYDROCHLORIDE]
EC50 [3]: 5.99 µM (active)
EC50 [4]: 5.85 µM (active)
EC50 [5]: 5.62 µM (active)
AC50 [6]: 4.94 µM (active)

COc1nc(-c2ccccc2)nc2ccccc12
EC50 (Streptokinase A): 75.4 µM (active)
EC50 (Streptococcus): > 500 µM (not active)

CCCOc1ccc(-c2nc(Oc3ccc(OC)cc3)c3ccccc3n2)cc1
EC50 (Streptokinase A): 179 µM (active)
EC50 (Streptococcus): > 500 µM (not active)

CCOC(=O)C1CCN(Cc2ccc(O)c3ncccc23)CC1
EC50 [7]: 22.2 µM (active)
EC50 [8]: > 38 µM (not active)
EC50 [9]: 3.26 µM (active)
EC50 [10]: > 60 µM (not active)
IC50 [11]: > 50 µM (not active)
IC50 (Nonstructural protein 1): 5.25 µM (active)
AC50 (INS1): 3.76 µM (active)

Cc1cccc(C)c1NC(=S)N/N=C/c1c(Cl)cccc1Cl
IC50 (Prothrombin): > 50 µM (not active)

O=[N+]([O-])c1cccc(NS(=O)(=O)c2ccc(-c3ccc(O)nn3)s2)c1
AC50 (Caspase-6): 40.3 µM (active)

Cc1cc(C(=O)OCC(=O)c2cccc([N+](=O)[O-])c2)c2cccc(C)c2n1
IC50 (Prothrombin): > 50 µM (inconclusive)

COc1ccc(N2CCC(CNS(=O)(=O)c3cccc(C(F)(F)F)c3)C2)cc1 (stereo not given)
IC50 [12]: > 54 µM (active)
IC50 [11]: > 50 µM (not active)

Cc1ccc(-n2c(C)cc(C3N=C(N)Nc4nc5ccccc5n43)c2C)c(C)c1 (stereo not given)
EC50 [3]: 11 µM (active)
EC50 [4]: 12.7 µM (active)
